# Measurements taken from ChEMBL document CHEMBL4354805, “Discovery of MK-8719, a Potent O-GlcNAcase Inhibitor as a Potential Treatment for Tauopathies” (J Med Chem, 2019).
# Tests used:
# [1] = Oral bioavailability in Wistar Han rat at 3 mg/kg; assay type: ADME, organism-based; settings: in vivo
# [2] = AUCN in Wistar Han rat at 3 mg/kg, po; assay type: ADME, organism-based; settings: in vivo
# [3] = AUC (0 to 24 hrs) in rat brain at 10 mg/kg, po measured upto 24 hrs; assay type: ADME, organism-based; design: dose 10 mg/kg, time < 24 hr, route oral; settings: in vivo
# Rattus norvegicus [4] = test: Increase in O-protein AUC in rat brain at 10 mg/kg, po measured upto 24 hrs; assay type: ADME, organism-based; settings: in vivo
# Rattus norvegicus [5] = test: Elevation of O-protein in rat brain at 10 mg/kg, po measured after 24 hrs; assay type: functional
# [6] = Half life in Wistar Han rat at 2 mg/kg, iv; assay type: ADME, organism-based; settings: in vivo
# MDR1 = test: Apparent permeability in pig LLC-PK1 cells transfected with MDR1; assay type: ADME, cell-based, Sus scrofa
# [7] = Fraction unbound in Wistar Han rat plasma at 2.5 uM by equilibrium dialysis; assay type: ADME, cell-free
# [8] = Tmax in rat brain at 10 mg/kg, po measured upto 24 hrs; assay type: ADME, organism-based
# [9] = Drug uptake in rat brain at 3 mg/kg, po measured after 8 hrs; assay type: ADME, organism-based; settings: in vivo
# [10] = biological target: T1, Beta-hexosaminidase subunit beta (Homo sapiens, UniProt P07686); test: Inhibition of human beta hexosaminidase assessed as inhibitory constant using 4-methylumbelliferyl N-acetyl-beta-D-glucosaminide dihydrate as substrate measured every 60 sec for 45 mins by fluorescence spectrophotometry
# T1 sequence (P07686 whole entry): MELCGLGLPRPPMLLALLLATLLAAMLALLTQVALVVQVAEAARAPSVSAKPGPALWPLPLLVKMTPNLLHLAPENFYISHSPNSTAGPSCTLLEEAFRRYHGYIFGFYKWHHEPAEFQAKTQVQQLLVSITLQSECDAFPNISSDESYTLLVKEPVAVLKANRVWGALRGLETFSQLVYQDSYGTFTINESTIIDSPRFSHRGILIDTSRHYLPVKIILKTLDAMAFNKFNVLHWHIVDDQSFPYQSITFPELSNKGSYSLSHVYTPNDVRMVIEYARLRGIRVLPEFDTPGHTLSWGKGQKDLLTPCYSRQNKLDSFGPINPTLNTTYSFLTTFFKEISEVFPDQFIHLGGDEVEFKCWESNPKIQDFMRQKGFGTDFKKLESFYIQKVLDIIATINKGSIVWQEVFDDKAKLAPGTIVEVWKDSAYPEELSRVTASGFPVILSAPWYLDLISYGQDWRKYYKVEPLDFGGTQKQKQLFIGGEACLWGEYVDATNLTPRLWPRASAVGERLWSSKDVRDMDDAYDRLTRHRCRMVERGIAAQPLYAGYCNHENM
# Protein O-GlcNAcase [11] = biological target: T2, Protein O-GlcNAcase (Homo sapiens, UniProt O60502); test: Inhibition of recombinant human OGA
# T2 sequence (O60502 whole entry): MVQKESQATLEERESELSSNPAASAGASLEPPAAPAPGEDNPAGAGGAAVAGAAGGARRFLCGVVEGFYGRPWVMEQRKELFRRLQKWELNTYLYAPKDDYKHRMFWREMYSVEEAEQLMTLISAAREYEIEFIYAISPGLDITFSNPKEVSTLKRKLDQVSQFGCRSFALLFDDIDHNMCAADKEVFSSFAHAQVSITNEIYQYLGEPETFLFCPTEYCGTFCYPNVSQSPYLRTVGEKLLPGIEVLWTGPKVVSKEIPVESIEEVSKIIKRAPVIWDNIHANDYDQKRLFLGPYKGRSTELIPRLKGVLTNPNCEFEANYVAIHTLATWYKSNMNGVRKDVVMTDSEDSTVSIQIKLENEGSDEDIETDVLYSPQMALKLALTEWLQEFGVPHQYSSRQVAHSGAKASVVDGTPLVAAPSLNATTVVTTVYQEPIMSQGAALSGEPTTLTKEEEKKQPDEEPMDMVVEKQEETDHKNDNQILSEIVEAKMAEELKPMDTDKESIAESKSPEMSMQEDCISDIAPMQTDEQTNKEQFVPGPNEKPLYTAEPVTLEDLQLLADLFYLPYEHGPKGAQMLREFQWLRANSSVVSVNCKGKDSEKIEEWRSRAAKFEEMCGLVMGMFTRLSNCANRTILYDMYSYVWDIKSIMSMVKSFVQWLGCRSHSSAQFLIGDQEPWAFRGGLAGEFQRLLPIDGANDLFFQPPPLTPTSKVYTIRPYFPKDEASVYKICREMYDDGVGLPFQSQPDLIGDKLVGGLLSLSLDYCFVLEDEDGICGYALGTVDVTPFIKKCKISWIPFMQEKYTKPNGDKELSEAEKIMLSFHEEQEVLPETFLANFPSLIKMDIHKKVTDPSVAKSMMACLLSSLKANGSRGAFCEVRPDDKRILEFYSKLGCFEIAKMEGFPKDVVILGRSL
# Rattus norvegicus [12] = test: Elevation of O-protein in rat brain at 3 mg/kg, po measured after 8 hrs relative to control; assay type: functional
# [13] = Fraction unbound in human plasma at 2.5 uM by equilibrium dialysis; assay type: ADME, cell-free
# [14] = Ratio of drug uptake in rat brain to plasma at 3 mg/kg, po measured after 8 hrs; assay type: ADME, organism-based; settings: read-out: BPR
# [15] = Volume of distribution at steady state in Wistar Han rat at 2 mg/kg, iv or 3 mg/kg, po; assay type: ADME, organism-based; settings: in vivo, read-out: Vdss
# Protein O-GlcNAcase [16] = biological target: T3, Protein O-GlcNAcase (Rattus norvegicus, UniProt Q8VIJ5); test: Inhibition of OGA in rat PC12 cells assessed as OGlcNAcylated protein level incubated for 24 hrs by ELISA; assay type: cell-based
# T3 sequence (Q8VIJ5 whole entry): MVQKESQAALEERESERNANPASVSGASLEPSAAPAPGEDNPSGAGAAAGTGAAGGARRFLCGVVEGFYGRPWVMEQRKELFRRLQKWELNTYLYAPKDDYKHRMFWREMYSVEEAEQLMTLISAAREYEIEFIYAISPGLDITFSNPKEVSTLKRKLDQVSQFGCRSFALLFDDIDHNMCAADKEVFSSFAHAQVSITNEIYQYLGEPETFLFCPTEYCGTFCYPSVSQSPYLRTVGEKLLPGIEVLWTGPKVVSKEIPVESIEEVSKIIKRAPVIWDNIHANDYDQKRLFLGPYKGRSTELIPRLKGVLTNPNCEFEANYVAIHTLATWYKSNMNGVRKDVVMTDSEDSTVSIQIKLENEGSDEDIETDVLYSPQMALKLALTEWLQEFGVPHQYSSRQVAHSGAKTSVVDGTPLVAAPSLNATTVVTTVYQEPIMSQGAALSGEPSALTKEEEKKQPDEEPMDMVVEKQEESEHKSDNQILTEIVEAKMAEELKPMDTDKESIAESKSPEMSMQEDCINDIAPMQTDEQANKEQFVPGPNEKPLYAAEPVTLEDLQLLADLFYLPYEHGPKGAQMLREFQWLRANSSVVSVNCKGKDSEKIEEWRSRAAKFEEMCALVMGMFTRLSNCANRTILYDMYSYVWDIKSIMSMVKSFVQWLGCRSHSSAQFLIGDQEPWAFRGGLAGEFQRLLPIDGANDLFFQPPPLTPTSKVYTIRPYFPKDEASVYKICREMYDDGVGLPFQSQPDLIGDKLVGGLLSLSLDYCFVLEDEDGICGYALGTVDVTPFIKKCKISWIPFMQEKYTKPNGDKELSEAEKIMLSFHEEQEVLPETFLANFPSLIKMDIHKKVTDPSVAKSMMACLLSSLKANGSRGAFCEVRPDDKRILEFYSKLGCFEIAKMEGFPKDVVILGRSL
# [17] = Clearance in Wistar Han rat at 2 mg/kg, iv; assay type: ADME, organism-based; settings: in vivo
# [18] = Drug uptake in rat brain at 3 mg/kg, po measured after 24 hrs; assay type: ADME, organism-based; settings: in vivo
# Rattus norvegicus [19] = test: Elevation of O-protein in rat brain at 3 mg/kg, po measured after 24 hrs relative to control; assay type: functional
# [20] = Ratio of drug uptake in rat brain to plasma at 3 mg/kg, po measured after 24 hrs; assay type: ADME, organism-based; settings: read-out: BPR
SMILES,bioavailability [1],AUC/dose [2],AUC [3],fold change (FC) (Rattus norvegicus [4]),fold change (FC) (Rattus norvegicus [5]),half-life [6],Papp (MDR1),fraction unbound at 2.5 µM [7],Tmax [8],Drug uptake [9],Ki [10],Ki (Protein O-GlcNAcase [11]),fold change (FC) (Rattus norvegicus [12]),fraction unbound at 2.5 µM [13],Kp at 8 h [14],Vd [15],EC50 (Protein O-GlcNAcase [16]),clearance [17],Drug uptake [18],fold change (FC) (Rattus norvegicus [19]),other results
CNC1=N[C@@H]2[C@H](F)[C@H](O)[C@@H](C(F)F)O[C@@H]2S1,90.4%,4.27 µM·kg·h/mg,35.91 nM·h/g,11.69,2.04,4.29 h,20 ×10⁻⁶ cm/s,0.93,8 h,0.142 nmol/g,> 10000 nM,23 nM,2.51,0.97,0.189,2.96 L/kg,58.2 nM,11.4 mL/min/kg,–,–,–
CNC1=N[C@@H]2[C@@H](O)[C@H](O)[C@@H](CF)O[C@@H]2S1,132%,3.36 µM·kg·h/mg,–,–,–,1.71 h,5.3 ×10⁻⁶ cm/s,0.88,–,0.068 nmol/g,790 nM,0.55 nM,2.44,0.96,0.6,1.79 L/kg,34.4 nM,27.8 mL/min/kg,0.025 nmol/g,1.65,Kp at 24 h [20]: ≥ 7.9
CN(C)C1=N[C@@H]2[C@@H](O)[C@H](O)[C@@H](C(F)F)O[C@@H]2S1,49.7%,0.43 µM·kg·h/mg,4.89 nM·h/g,34.18,2.83,3.81 h,14 ×10⁻⁶ cm/s,0.95,12 h,0.147 nmol/g,3900 nM,2.4 nM,2.53,> 0.99,1.56,10.3 L/kg,31.2 nM,70.5 mL/min/kg,0.049 nmol/g,2.57,Kp at 24 h [20]: 3.03
